# Assays:
# [1] = system: rabbit carotid artery segment; test: Ex vivo translocation study, carotid artery segments; set-up: species or system New Zealand white rabbits; details: carotid artery, 10.0 μM, 30 minutes
# Protocol: (§1) After incubation with biotin labeled oligomer, vascular segments were washed, then frozen in OCT compound (Miles Scientific). Frozen sections, 5 μm thick, were fixed with acetone for 10 minutes. Internalized biotin was detected using the staining procedure described in Example 2. Methyl green was used for nuclear counter staining.
# (§2) To quantify the efficiency of nuclear translocation, the numbers of both DAB positive nuclei and total nuclei were counted in the intima and media separately at ×400 magnification with a video image analysis system (Automatrix). The frequency of nuclear translocation was expressed as the percent staining of nuclei, defined as the ratio of the number of DAB positive nuclei to that of all nuclei, in the intima and media. Each protocol was repeated 4 times.
# Both carotid artery and jugular vein segments of male New Zealand white rabbits were used. To test the dose dependence of R7 translocation, vascular segments were incubated for 30 minutes with either bL-R7 or bD-R7 solution (0.1, 1.0, and 10.0 μM) in serum-free Dulbecco's minimal essential medium (DMEM) (Gibco BRL). To test the incubation time dependence, vascular segments were incubated with 10.0 μM of biotin labeled R7 solution for 10 seconds, 60 seconds, 5 minutes, 10 minutes, and 30 minutes. Furthermore, to determine the ability of R7 to penetrate through the vessel wall, vascular segments were ligated one end, R7 containing medium was instilled, and the other end ligated so as to expose only the luminal surface to R7. The luminal surface of the vascular segment was exposed to bL-R7 or bD-R7 (10.0 μM) for 30 minutes. To test the temperature dependence of translocation, vascular segments were incubated with 10.0 μM of biotin labeled R7 solutions at 37° C. or 4° C. To determine the disappearance time course of translocated R7, vascular segments were incubated with biotin labeled R7 solutions (10.0 μM) at 37° C. for 30 minutes, and then reincubated in DMEM with 10% FBS up to 5 days. Vascular segments were harvested at 1, 2 and 5 days after initial incubation.
# [2] = system: human umbilical vein endothelial cells (ECV304); test: In vitro translocation of biotin-labeled peptides into endothelial cells; type: cell-based; details: endothelial cells, 0.1, 1.0, and 10.0 μM, 30 minutes
# Protocol: Spontaneously transformed human umbilical vein endothelial cells (ECV304, ATCC) were cultured in medium M199 (Irvine Scientific) containing 10% fetal bovine serum (FBS), 100 IU/ml penicillin and 100 μg/ml of streptomycin (Gibco BRL). Confluent cells were washed and placed in serum-free medium. After 2 hours, the cells were incubated in presence of biotin labeled peptides, as bL-R7, or bD-R7, or bL-K7 (0.1, 1.0, and 10.0 μM). After 30 minutes of incubation, cells were washed 3 times with phosphate-buffered saline (PBS), fixed in ethanol/acetone; washed in PBS; incubated for 30 minutes with peroxidase suppressor (ImmunoPure, Pierce) to block endogenous peroxidase activity; and then incubated with 5 μg/ml of horse-radish peroxidase (HRP) conjugated strepavidin (Pierce) for 30 minutes. Substrate of HRP, diaminobenzidine (DAB, Sigma), was added to the cells. The reaction was terminated by washing in distilled water after a 60-second incubation. This experiment was repeated 3 times.
# [3] = system: jugular vein segments; test: Ex vivo translocation study, jugular vein segments; set-up: species or system New Zealand white rabbits; details: 10 μM, 30 minutes
# Protocol: as §1, §2
# Both carotid artery and jugular vein segments of male New Zealand white rabbits were used. To test the dose dependence of R7 translocation, vascular segments were incubated for 30 minutes with either bL-R7 or bD-R7 solution (0.1, 1.0, and 10.0 μM) in serum-free Dulbecco's minimal essential medium (DMEM) (Gibco BRL). To test the incubation time dependence, vascular segments were incubated with 10.0 μM of biotin labeled R7 solution for 10 seconds, 60 seconds, 5 minutes, 10 minutes, and 30 minutes. […]
# [4] = system: rat vascular smooth muscle cells (VSMC); test: Translocation of biotin-labeled peptides into cultured VSMC (HRP-streptavidin/DAB staining); type: cell-based; details: 10 μM, 30 minutes, 37° C.
# Protocol: In the studies described below, transmembrane transport and cellular uptake of oligomers was assessed by incubating cells or tissue with biotin-oligomer conjugates, followed by treatment with horseradish peroxidase (HRP)-conjugated streptavidin and subsequent incubation with DAB (3,3′-diaminobenzidine), a substrate of the enzyme which produces a highly colored product.
# Cultured VSMC (vascular smooth muscle cells) were treated, as described in Example 2, with biotinylated oligomers of arginine or lysine. After incubation, the cells were treated with HRP-streptavidin conjugate, then with DAB. Staining by the oxidation product was observed using light microscopy.
# Rat VSMCs were grown on glass microscope slide chambers (Nunc Inc., Naperville, Ill.). Subconfluent cells were washed and placed in serum-free medium. After 2 hours, cells were treated with bR7, or bK7 (0.1 μM, 1.0 μM, 10 μM), at 37° C. for 30 minutes. To assess the role of endocytosis in cellular uptake of the peptides, experiments were performed at 4° C., and also in the presence of sodium azide (1.0%) for 30 minutes prior to exposure to the peptides. To assess the involvement of the basic amino acid transport system y+ in the translocation of peptides into the cell, experiments were performed in the presence of excess extracellular L-arginine (10 mM).
# After 30 minutes of incubation with the peptides, cells were washed 3 times with phosphate-buffered saline (PBS), fixed for 5 minutes at −20° C. in ethanol/acetone, washed 3 times in PBS, incubated for 30 minutes with a peroxidase suppressor (ImmunoPure, Pierce, Rockford, Ill.) to block endogenous peroxidase activity and nonspecific binding, washed, and then incubated with 5 μg/ml of horseradish peroxidase (HRP) conjugated strepavidin (Pierce, Rockford, Ill.) for 30 minutes. Cells were washed 3 times with PBS, and a substrate of HRP, DAB (Sigma, St. Louis, […].), was added to the cells. The reaction was terminated by washing in distilled water after a 60-second incubation with DAB. Cell preparations were observed by conventional light microscopy (see FIG. 1). This experimental protocol was repeated 3 times.
# [5] = system: vein grafts; test: Vein graft model: vessel morphometry 28 days after surgery; type: in vivo, New Zealand white rabbits
# Protocol: Male New Zealand white rabbits (3.0-3.5 kg) fed standard diets were anesthetized with a mixture of ketamine (40 mg/kg) and xylazine (5 mg/kg) intramuscularly. The left external jugular vein was exposed through a longitudinal neck incision. The jugular vein was excised, gently flushed and immersed in PBS (control) or PBS containing either L-R7 (10.0 μM) or D-r7 (10.0 μM) for 30 minutes.
# The right common carotid artery was exposed and clamped at the both proximal and distal ends. The treated vein segment was washed with PBS and then anastomosed in a reverse end-to-side fashion into the carotid artery, using continuous 8-0 polypropylene sutures. The common carotid artery was ligated and dissected between the two anastomoses, and the wound was closed with 3-0 nylon suture.
# Vein graft segments were harvested on the 28th surgical day. Graft segments were fixed in 10% buffered formalin with gentle intraluminal pressure to maintain the physiological graft configuration. The middle portion of the paraffin samples were sectioned (5 μm) and stained with hematoxylin/eosin for light microscopic examination (FIGS. 8A-C). Three sections of each graft, taken at 0.5 mm intervals, were analyzed by planimetry by a observer blinded to the treatment group. The cross-sectional areas of the lumen, intima and media was digitized with the use of the Image Analyst program (Automatrix). The ratio of intima to media (I/M) area was calculated.
# [6] = system: coronary vessels of transplanted PVG rat donor hearts; test: Heart transplant study (graft coronary artery disease, GCAD); type: in vivo; details: for % affected vessels / % luminal narrowing / I/M ratio: intracoronary 50 uM, 30 minutes
# Protocol: In this study, PVG rat donor hearts (n=48) were transplanted heterotopically into the abdomen of ACI recipients. Donor hearts received either intracoronary PBS or intracoronary 50 uM (L)-arginine polymer (L-R5 or L-R9) for 30 minutes. (D-arginine polymers were not included in this study.) Each of these groups was further divided into 60 and 90 day study animals (n=6 each). Percent luminal narrowing, intima to media ratio (I/M), and percent affected vessels were determined as described in Example 11, below. Transfection efficiency was determined by infusing biotinylated R5 and R9, as in the preceding studies, and calculating the percentage of biotin positive nuclei divided by total number of nuclei.
# PVG rat donor hearts (n=48) were transplanted heterotopically into the abdomen of ACI recipients. Donor hearts received either intracoronary PBS or intracoronary 50 uM (L)-arginine polymer (L-R5 or L-R9) for 30 minutes. Each group was further divided into 60 and 90 day study animals (n=6 each). Tissue cross sections (5μ) were stained with EVG (Elastica-van Gieson) preparation, and vessels were scored using computerized morphometry for analysis of % luminal narrowing, intima to media ratio (I/M), and % affected vessels. Transfection efficiency was determined by infusing biotinylated R5 and R9, as in preceding examples, and calculating the percentage of biotin positive nuclei divided by total number of nuclei. Results are described in Section IV C, above.
# [7] = system: cell membrane; details: previously demonstrated; cited from earlier work
# [8] = system: cytokine-stimulated VSMC; test: Effect of arginine oligomers on NO production in cytokine-stimulated VSMC (NO2, Griess); type: cell-based, rat; details: pretreatment 30 minutes, then IFN-γ and LPS, 100 μM extracellular L-arginine
# Protocol: (§3) Rat VSMCs were prepared from the media layer of thoracic aorta of Sprague-Dawley rats by the explant method. The cells were cultured in Dulbecco's modified Eagle's medium (DMEM, Gibco BRL, Gaithersburg, Md.) containing 10% fetal calf serum, 100 U/ml penicillin and 100 μg/ml streptomycin at 37° C. under a humidified atmosphere containing 5% CO2. After subconfluent growth, cells were cultured with MEM Select Amine Kit (Gibco BRL, Gaithersburg, Md.) to be treated by specific concentrations of extracellular free L-arginine. Experiments were performed using cultured cells at passage levels of 5-10.
# (§4) Extracellular NO production was measured as its stable oxidative metabolite, nitrite (NO2). At the end of each incubation, samples of the medium (80 μl) were collected, and NO2 measurement was performed using the Griess reaction facilitated by a commercial calorimetric assay (Cayman Chemical, Ann Arbor, Mich.). Values of NO2 production were corrected with relative cell count assessed by a cell proliferation kit II (XTT) (Boeheringer Mannheim, Germany).
# Subconfluent cells were pre-incubated with medium containing 100 μM arginine for 24 hours. The cells were then transiently pretreated with each arginine polymer for 30 minutes. After translocation, the cells were incubated with a mixture of IFN-γ (100 U/ml) and LPS (100 μg/ml) in medium containing 100 μM L-arginine for another 24 hours. In some experiments, L-NMMA (1 mM), a nitric oxide synthase inhibitor, was added to the medium.
# [9] = system: rat VSMC; test: Stimulation of cells with interferon-γ and LPS: NO2 accumulation and dependence on extracellular L-arginine; type: cell-based; details: IFN-γ dose
# Protocol: as §3, §4
# Cells were plated at a density of 5×10^3 per well into 96-well plates. […] After 24 hours of incubation, the cells were then treated with a mixture of IFN-γ (100 U/ml) and LPS (100 μg/ml) in the medium containing the same dose of L-arginine for another 24 hours, and nitrite (NO2) accumulation in the culture medium was quantified.
molecule,measurement,setting,value
"biotin-labeled heptalysine [bK7, reference compound]",biotin signal in vascular cells,[1],no stained cells were apparent
same,internalized biotin signals,[2],No internalized biotin signals were detected
same,biotin staining pattern,[3],no stained cells were apparent
same,internalized biotin signal (staining),[4],no internalized biotin signal was observed
penta-L-arginine [R5],myointima formation,[5],not effective in inhibiting myointima formation
same,GCAD compared to PBS controls,[6]; 60 and 90 days,essentially no difference in GCAD
same,% affected vessels,[6]; 60 days,18.9 ± 7%
same,% luminal narrowing,[6]; 60 days,12.6 ± 6.7%
same,I/M ratio,[6]; 60 days,.13 ± .07
same,% affected vessels,[6]; 90 days,18.5 ± 11.9%
same,% luminal narrowing,[6]; 90 days,14.2 ± 12%
same,I/M ratio,[6]; 90 days,.16 ± .14
same,transfection of coronary vessels,[6]; biotinylated oligomer infused,minimal transfection of coronary vessels
same,translocation across the cell membrane,[7],not to translocate across the cell membrane
same,NO production,[8],no significant enhancement of NO production
"IFN-γ: Recombinant rat recombinant interferon-γ (protein, UniProt P01581 23-156, looked up) Interferon gamma: QGTLIESLESLKNYFNSSSMDAMEGKSLLLDIWRNWQKDGNTKILESQIISFYLRLFEVLKDNQAISNNISVIESHLITNFFSNSKAKKDAFMSIAKFEVNNPQIQHKAVNELIRVIHQLSPESSLRKRKRSRC",effect on NO biosynthesis,[9],dose-dependent

# Reference: patent publication US6605115B1, “Method and composition for inhibiting cardiovascular cell proliferation” (Board of Trustees of the Leland Stanford Junior University, priority 1999, dated 2003)
